Where two headings read alike, the source gives them in different places.

From US4237139A, “4-(3-(4-Quinolyl)propyl)piperidines, their preparation and their use as medicines” (Pharmindustrie, priority 1976, dated 1980) come the findings set out here.

The test system of data set [1] is uptake of serotonine by human blood platelets. Nature of the data set: Inhibition of the uptake of serotonine by human blood platelets. The class given is cell-based. The conditions noted are these: for IC50: Platelet, read-out: Inhibition of the Uptake of serotonine I50; for times less effective than its epimer as inhibitor of serotonine uptake: Example 7 vs Example 1, Example 9 vs Example 3. The source says:
It is known that the uptake of serotonine by the blood platelets is a good model or indication of the uptake of this amine by neurons [see J. TUOMISTO, J. Pharm., Pharmac., 26 92 (1974)]. When it is applied to the investigation of medicaments, a method which brings into play the blood platelets presents great interest because it makes it possible to use human cells, which enables the method to give a good anticipation of the effect of the products on human beings.
(§1) The capacity of the products for inhibiting the uptake of serotonine or for causing its release has been shown on human blood platelets according to J. L. DAVID et al. "Platelets Function and Thrombosis, a Review of Methods" p. 335 (Plenum Press, London, 1972).
(a) Inhibition of the uptake of serotonine
The results are expressed by a 50% inhibiting dose I50, which represents the product dose in micromoles per liter reducing the uptake of serotonine by 50%.

Data set [2] relates to release of serotonine by human blood platelets. Nature of the data set: Release of serotonine from human blood platelets. The class given is cell-based. The conditions noted are these: for activation at 5 µM / activation at 50 µM: Homo sapiens, Platelet, read-out: Percentage of increase of the release of serotonine; for release of serotonine compared with p-chloro amphetamine, in words / release of serotonine, in words: human blood platelets.
Excerpt: as §1
(b) Release of serotonine
The action of the products on the release of serotonine has been tested at two concentrations: 5×10^-6 mole per liter and 5×10^-5mole per liter.
The results obtained are expressed by a percentage of increase of the release of serotonine in comparison with the results obtained with the controls.

Data set [3] in a line: Acute toxicity (LD50) in mice. The conditions noted are these: mouse, in vivo. The protocol:
The acute toxicities and symptomatologies of the compounds according to the present invention have been determined on CD1 (Charles River) male mice by I.V. and oral methods. The LD50's were calculated, after 3 days of observation, by the cumulative method of J. J. Reed & H. Muench, Amer. J. Hyg., 27, 493, 1938, which is relied on herein and the disclosure incorporated by reference.

Data set [4] relates to uptake of serotonine by synaptosomes of the rat's brain. Briefly: Inhibition of the uptake of serotonine by synaptosomes of the rat's brain. As to conditions: in vitro, read-out: 50% inhibiting dose I50, uptake of serotonine by synaptosomes. The class given is biochemical.
In data set [5] the target is benzodiazepine receptors in rat brain membranes. Briefly: Inhibition of specific ^3 H-diazepam binding to rat brain membranes. As to conditions: for Ki: read-out: Ki, Inhibition of Specific ^3 H-Diazepam Binding To Rat Brain Membranes, rat brain membranes, ^3 H-diazepam.
For data set [6], the system named is ventricular arrhythmia caused by aconitine. The conditions noted are these: aconitine test, rats.
Another data set is described as follows: in vivo. The conditions noted are these: rat, iv.
Data set [7] deals with ventricular arrhythmia caused by aconitine. Briefly: animal or person. As to conditions: Rattus norvegicus, iv, read-out: ED50 I.V., dose increasing by 50% the perfusion time of aconitine.
A further data set deals with 5-HTP-induced quivering. Briefly: Potentiation test of 5-hydroxytryptophan (5-HTP), quivering in mice. The data set is classed as in vivo, CD1 (Charles River) male mice. The conditions noted are these: for ED50: Mus musculus, sc, read-out: ED 50, dose giving an average indication of quivering equal to 1; for inherent effect (in the absence of 5-HTP): dose of 25 mg/kg, control product groups. The source says: (2) Potentialing Effect of 5-HTP:
It is known that the administration of 5-HTP parenterally in mice causes, with large doses, a characteristic behavior, i.e. quivering, torsions of the trunk, displacement of the rear legs, shaking of the head and increased general motility. To show a potentiating power with respect to 5-HTP, the present inventors have therefore used to advantage one of the characteristic properties of the precursor of serotonine, i.e. quivering. The procedure used is inspired by that of C. […] Groups of 8 male mice were used. The chronological order of the test was as follows for the groups treated with both 5-HTP and the products according to the invention.
At time t=30 min., the product to the tested was injected subcutaneously (S.C.) in the form of a 9% aqueous solution of NaCl.
At time t=75 min., the quivering in each animal was measured using the following scale:
1=quivering of average intensity
The chronological order was the same for the "control 5-HTP" and "control product" groups except that, in the first case, a 9% aqueous solution of NaCl was injected in the S.C. manner instead of the product solution and, in the second case, a 9% aqueous solution of NaCl was injected in the I.P. manner instead of the 5-HTP solution. The "control product" groups received the same doses of the tested product as the groups treated with both 5-HTP and the product in order to discover any possible effect inherent in the product.
The number of points for each group was totalled and the average indication of quivering was determined.

Data set [8] has as its system sleep induced by serotonine. Briefly: Potentiation of sleep induced by serotonine in chickens. The data set is classed as in vivo, chicken. As for the experimental part: The role of the cerebral serotonine in sleep is a well-known fact as reported by M. Jouvet and Coll., C. R. Acad. Sc.
Groups of 12 chickens were used, to which were administered intravenously serotonine at a dosage level of 0.1 mg/kg.

Data set [9] deals with vasoconstriction of the nasal mucous membrane. Nature of the data set: Vascular action: potentiation of the vascular effects of serotonine in anaesthetized dog. The class given is in vivo.
Procedure: The potentiation of the vascular effects of serotonine is shown according to the procedure of J. J. Loux, Arch. […] The modified method consists in injecting into the carotid of an anaesthetized dog increasing and cumulated doses of serotonine. […] This increase was measured by connecting the nasal sinus, hermetically isolated from outside, with a pressure gauge.
The mark [10] stands for this setting: po, Table 6, P.O., mice, 3 days of observation, read-out: LD50 P.O.
The mark [11] stands for this setting: 5 × 10^-5 mole per liter, in comparison with controls.
Where [12] appears, read: 5 × 10^-6 mole per liter, in comparison with controls.
[13] abbreviates: iv, I.V., Table 4 (toxicity; species not given), read-out: LD50 I.V.

By LD50 is commonly meant the dose expected to kill half of the subjects tested. Turning to `C=C[C@@H]1CNCC[C@H]1CCCc1ccnc2ccc(OC)cc12` [Example 7, 4(R)-[3-(6-methoxy 4-quinolyl)propyl]3(S)-vinyl piperidine], the IC50 in data set [1] (Homo sapiens) is 1000 nM. For the same molecule, the “times less effective than its epimer as inhibitor of serotonine uptake” value in data set [1] (human blood platelets) turned out to be 100 times. Besides, in data set [2], the activation at 5 µM is 40%; the activation at 50 µM amounted to 78%; the “release of serotonine compared with p-chloro amphetamine, in words” value is recorded as “even more effective than p-chloro amphetamine”; the “release of serotonine, in words” value is recorded as “powerful agents for the release of serotonine”. Besides, in data set [3] (setting [10]), the LD50 at 72 h came out at 225 mg/kg.
The term Ki denotes the equilibrium dissociation constant of an inhibitor or competing ligand from its target. For `CC[C@H]1CNCC[C@H]1CCCc1ccnc2ccc(OC)cc12` [Example 3, 4(R)-[3-(6-methoxy 4-quinolyl)propyl] 3(R)-ethyl piperidine], the IC50 in data set [4] was determined as 8 nM; in data set [1] (human blood platelets), 10 nM. Besides, the activation at 50 µM in data set [2] (setting [11]) was 67%. Besides, the activation at 5 µM in data set [2] (setting [12]) turned out to be 34%. Also, the “release of serotonine compared with p-chloro amphetamine, in words” value in [2] is recorded as “even more effective than p-chloro amphetamine”. The “release of serotonine, in words” value in data set [2] was “powerful agents for the release of serotonine”. Besides, the Ki in data set [5] was 4500 nM. Further, the LD50 at 72 h in data set [3] (setting [13]) was determined as 21 mg/kg; in data set [3] (setting [10]), 600 mg/kg. Moreover, the “antiarythmic effectiveness compared with quinidine and disopyramide, in words” value in data set [6] is “more effective than the reference products (quinidine and disopyramide)”. Further, in the data set “in vivo”, the selectivity ratio stood at 30. In addition, in data set [7], the ED50 turned out to be 0.7 mg/kg.
On to `c1ccc2c(CCCC3CCNCC3)ccnc2c1` [Example 4, 4-[3-(4-quinolyl)propyl]piperidine], for which the Ki in [5] amounted to 3500 nM. The median lethal dose (LD50) at 72 h is 42 mg/kg in data set [3] (setting [13]) and 600 mg/kg in [3] (setting [10]). Besides, the selectivity ratio in the data set “in vivo” is 2.8. For the same molecule, the ED50 in data set [7] was determined as 15 mg/kg.
For the molecule `CC(N)Cc1ccc(Cl)cc1` (stereo not drawn) [p-Chloro amphetamine, p-chloro amphetamine, reference compound], the IC50 in data set [1] (Homo sapiens) came to 12000 nM. In [2], the activation at 5 µM is 6% and the activation at 50 µM turned out to be 51%.
As to `C=C[C@H]1CNCC[C@H]1CCCc1ccnc2ccccc12` [Example 2, 4(R)-[3-(4-quinolyl)propyl] 3(R)-vinyl piperidine], in data set [4], the IC50 is 35 nM. Further, the ED50 was 12 mg/kg in the data set on 5-HTP-induced quivering (product S.C., 5-HTP 150 mg/kg I.P., male mice) and 12 mg/kg in data set [7]. Further, the “inherent effect (in the absence of 5-HTP)” value in the data set with 5-HTP-induced quivering is “did not have any inherent effect”. Also, the Ki in [5] is 2500 nM. Besides, the LD50 at 72 h in data set [3] (setting [13]) is 30 mg/kg; in [3] (setting [10]), 525 mg/kg. For the same molecule, in the data set “in vivo”, the selectivity ratio turned out to be 2.5.
In the case of `CC[C@H]1CNCC[C@H]1CCCc1ccnc2ccccc12` [Example 5, 4(R)-[3-(4-quinolyl)propyl] 3(R)-ethyl piperidine], the inhibition constant Ki in data set [5] was found to be 8000 nM. Moreover, the LD50 at 72 h stood at 22 mg/kg in [3] (setting [13]) and 600 mg/kg in data set [3] (setting [10]). The “antiarythmic effectiveness compared with quinidine and disopyramide, in words” value in data set [6] is “more effective than the reference products (quinidine and disopyramide)”. Further, the selectivity ratio in “in vivo” stood at 9.6. Besides, the ED50 in data set [7] turned out to be 2.3 mg/kg.
With `C=C[C@H]1C[N@@]2CC[C@H]1C[C@@H]2[C@@H](O)c1ccnc2ccc(OC)cc12` [Quinidine, reference compound], in [3] (setting [13]), the LD50 at 72 h came out at 70 mg/kg. Further, the selectivity ratio in the data set “in vivo” was 9.3. Besides, the ED50 in data set [7] stood at 7.5 mg/kg.
Regarding `CC[C@@H]1CNCC[C@H]1CCCc1ccnc2ccc(OC)cc12` [Example 9, 4(R)-[3-(6-methoxy 4-quinolyl)propyl]3(S)-ethyl piperidine], in data set [1] (human blood platelets), the IC50 worked out at 100 nM and the “times less effective than its epimer as inhibitor of serotonine uptake” value is at least 10 times. Moreover, the activation at 50 µM in data set [2] (setting [11]) was found to be 69%. Also, the activation at 5 µM in data set [2] (setting [12]) amounted to 30%. Further, in [2], the “release of serotonine compared with p-chloro amphetamine, in words” value is “even more effective than p-chloro amphetamine” and the “release of serotonine, in words” value is listed as “powerful agents for the release of serotonine”. For the same molecule, the inhibition constant Ki in data set [5] turned out to be 5000 nM. Also, in data set [3] (setting [10]), the median lethal dose (LD50) at 72 h is 200 mg/kg.
In the case of `CC(C)N(CCC(C(N)=O)(c1ccccc1)c1ccccn1)C(C)C` (stereo not drawn) [Disopyramide, reference compound], the 50% lethal dose (LD50) at 72 h in data set [3] (setting [13]) was determined as 26 mg/kg. The selectivity ratio in the data set “in vivo” is 6.5. In addition, the ED50 in data set [7] worked out at 4 mg/kg.
Consider `C=C[C@H]1CNCC[C@H]1CCCc1ccnc2ccc(OC)cc12` [Example 1, 4(R)-[3-(6-methoxy 4-quinolyl)propyl] 3(R)-vinyl piperidine], for which, in the data set with 5-HTP-induced quivering, the ED50 amounted to 14 mg/kg and the “inherent effect (in the absence of 5-HTP)” value is given as “did not have any inherent effect”. The IC50 in [1] (Homo sapiens) was 10 nM. Further, in data set [2], the activation at 5 µM worked out at 7% and the activation at 50 µM came to 32%. Further, the “chickens sent to sleep” value in data set [8] (product of Example 1 at 3 mg/kg I.V. + serotonine 0.1 mg/kg I.V.) is 60%. For the same molecule, the “potentiation of vascular effect of serotonine (pressure decrease measured by the gauge)” value in [9] (1 μg/kg I.V., 0.05 μg/kg of serotonine) is listed as “twice greater”. The 50% lethal dose (LD50) at 72 h in data set [3] (setting [13]) is 30 mg/kg. Also, the median lethal dose (LD50) at 72 h in [3] (setting [10]) is 600 mg/kg. In addition, the “antiarythmic effectiveness compared with quinidine and disopyramide, in words” value in data set [6] is “more effective than the reference products (quinidine and disopyramide)”. The ED50 in data set [7] was 2 mg/kg.
For the molecule `NCCc1c[nH]c2ccc(O)cc12` [serotonine, reference compound], the “chickens sent to sleep” value in [8] (serotonine 0.1 mg/kg I.V. alone) was 25%. Also, the minimal effective dose in [9] (Canis lupus familiaris, serotonine into the carotid, increasing and cumulated doses, read-out: dose from which an increase of the total volume of sinus was observed) was at least 0.0002 mg/kg.
Consider `CN(C)CCCN1c2ccccc2CCc2ccccc21` [Imipramine, reference compound], for which the IC50 in data set [1] (Homo sapiens) stood at 400 nM. Also, in [2], the activation at 5 µM is 3% and the activation at 50 µM was 13%. The “Ki, Inhibition of Specific ^3 H-Diazepam Binding To Rat Brain Membranes” value in data set [5] is “inactive”.
